# According to ChEMBL document CHEMBL5331134, “Identification of Brain-Penetrant ATP-Competitive mTOR Inhibitors for CNS Syndromes” (J Med Chem, 2023):
# pIC50: −log10 of the molar value.
# What was measured:
# [1] = Bioavailability in C57BL/6 mouse at 1 mg/kg, iv and 3 mg/kg, ip measured upto 24 hrs by HPLC-MS analysis; assay type: ADME, organism-based; conditions: in vivo
# [2] = AUC(0 to t) in C57BL/6 mouse at 1 mg/kg, iv measured upto 24 hrs by HPLC-MS analysis; assay type: ADME, organism-based; design: time < 24 hrs, dose 1 mg/kg, route iv; conditions: in vivo
# [3] = Drug concentration in C57BL/6 mouse plasma at 30 mg/kg, po measured after 3 hrs; assay type: ADME, organism-based
# [4] = AUC(0 to t) in Sprague-Dawley rat at 1 mg/kg, iv measured upto 24 hrs by HPLC-MS analysis; assay type: ADME, organism-based; design: dose 1 mg/kg, time < 24 hrs, route iv; conditions: in vivo
# [5] = Cmax in Sprague-Dawley rat at 3 mg/kg, po measured upto 24 hrs by HPLC-MS analysis; assay type: ADME, organism-based; design: dose 3 mg/kg, time < 24 hrs, route po; conditions: in vivo
# [6] = Cmax in po dosed C57BL/6 mouse measured upto 24 hrs by HPLC-MS analysis; assay type: ADME, organism-based; design: time < 24 hrs, route po; conditions: in vivo
# [7] = Cmax in Beagle dog at 1 mg/kg, po measured upto 24 hrs by LC/MS/MS analysis; assay type: ADME, organism-based, Canis lupus familiaris; design: dose 1 mg/kg, time < 24 hrs, route po; conditions: in vivo
# [8] = target: T1, Phosphatidylinositol 4,5-bisphosphate 3-kinase catalytic subunit delta isoform (Homo sapiens, UniProt O00329); assay: Inhibition of PI3Kdelta (unknown origin)
# T1 sequence (O00329 whole entry): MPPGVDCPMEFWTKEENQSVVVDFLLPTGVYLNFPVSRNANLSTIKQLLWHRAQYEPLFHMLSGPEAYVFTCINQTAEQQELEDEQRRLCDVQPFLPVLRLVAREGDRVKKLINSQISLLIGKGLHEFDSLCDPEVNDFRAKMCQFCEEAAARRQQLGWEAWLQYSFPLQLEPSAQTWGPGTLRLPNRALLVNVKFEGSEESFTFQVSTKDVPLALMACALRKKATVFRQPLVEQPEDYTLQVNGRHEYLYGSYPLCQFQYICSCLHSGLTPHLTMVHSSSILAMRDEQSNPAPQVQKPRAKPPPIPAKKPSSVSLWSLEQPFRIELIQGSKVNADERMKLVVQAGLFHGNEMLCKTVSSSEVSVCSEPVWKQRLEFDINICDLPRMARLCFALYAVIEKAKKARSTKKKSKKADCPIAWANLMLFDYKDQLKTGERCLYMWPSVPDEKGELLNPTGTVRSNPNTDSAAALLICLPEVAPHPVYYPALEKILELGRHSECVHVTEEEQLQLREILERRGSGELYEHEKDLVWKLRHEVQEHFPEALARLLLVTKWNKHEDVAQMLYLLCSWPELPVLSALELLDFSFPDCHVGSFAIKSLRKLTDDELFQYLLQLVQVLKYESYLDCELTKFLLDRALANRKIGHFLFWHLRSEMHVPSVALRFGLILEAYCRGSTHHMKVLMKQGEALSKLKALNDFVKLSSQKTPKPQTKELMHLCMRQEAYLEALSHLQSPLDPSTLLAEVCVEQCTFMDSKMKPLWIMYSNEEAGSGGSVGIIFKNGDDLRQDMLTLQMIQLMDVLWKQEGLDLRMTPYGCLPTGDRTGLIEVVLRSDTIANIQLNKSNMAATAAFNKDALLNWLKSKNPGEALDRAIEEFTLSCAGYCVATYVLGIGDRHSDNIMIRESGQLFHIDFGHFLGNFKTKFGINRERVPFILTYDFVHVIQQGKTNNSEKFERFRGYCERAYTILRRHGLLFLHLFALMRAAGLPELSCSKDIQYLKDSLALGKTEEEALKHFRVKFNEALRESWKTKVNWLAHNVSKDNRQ
# [9] = Tmax in Beagle dog at 1 mg/kg, po and 0.3 mg/kg, iv measured upto 24 hrs by LC/MS/MS analysis; assay type: ADME, organism-based, Canis lupus familiaris; conditions: in vivo
# [10] = Ratio of drug concentration in brain to plasma in C57BL/6 mouse at 30 mg/kg, po measured at 24 hrs; assay type: ADME, organism-based; conditions: brain and plasma, read-out: BPR
# [11] = AUC(0 to t) in cynomolgus monkey at 0.3 mg/kg, po measured upto 24 hrs by LC/MS/MS analysis; assay type: ADME, organism-based, Macaca fascicularis; design: dose 0.3 mg/kg, time < 24 hrs, route po; conditions: in vivo
# [12] = Genotoxicity in human TK6 cells assessed as micronuclei formation by micronucleus test; assay type: toxicity, cell-based
# [13] = target: Phosphatidylinositol 4,5-bisphosphate 3-kinase catalytic subunit gamma isoform (Homo sapiens, UniProt P48736); assay: Inhibition of PI3Kgamma (unknown origin)
# Phosphatidylinositol 4,5-bisphosphate 3-kinase catalytic subunit gamma isoform, sequence (P48736 whole entry, canonical isoform): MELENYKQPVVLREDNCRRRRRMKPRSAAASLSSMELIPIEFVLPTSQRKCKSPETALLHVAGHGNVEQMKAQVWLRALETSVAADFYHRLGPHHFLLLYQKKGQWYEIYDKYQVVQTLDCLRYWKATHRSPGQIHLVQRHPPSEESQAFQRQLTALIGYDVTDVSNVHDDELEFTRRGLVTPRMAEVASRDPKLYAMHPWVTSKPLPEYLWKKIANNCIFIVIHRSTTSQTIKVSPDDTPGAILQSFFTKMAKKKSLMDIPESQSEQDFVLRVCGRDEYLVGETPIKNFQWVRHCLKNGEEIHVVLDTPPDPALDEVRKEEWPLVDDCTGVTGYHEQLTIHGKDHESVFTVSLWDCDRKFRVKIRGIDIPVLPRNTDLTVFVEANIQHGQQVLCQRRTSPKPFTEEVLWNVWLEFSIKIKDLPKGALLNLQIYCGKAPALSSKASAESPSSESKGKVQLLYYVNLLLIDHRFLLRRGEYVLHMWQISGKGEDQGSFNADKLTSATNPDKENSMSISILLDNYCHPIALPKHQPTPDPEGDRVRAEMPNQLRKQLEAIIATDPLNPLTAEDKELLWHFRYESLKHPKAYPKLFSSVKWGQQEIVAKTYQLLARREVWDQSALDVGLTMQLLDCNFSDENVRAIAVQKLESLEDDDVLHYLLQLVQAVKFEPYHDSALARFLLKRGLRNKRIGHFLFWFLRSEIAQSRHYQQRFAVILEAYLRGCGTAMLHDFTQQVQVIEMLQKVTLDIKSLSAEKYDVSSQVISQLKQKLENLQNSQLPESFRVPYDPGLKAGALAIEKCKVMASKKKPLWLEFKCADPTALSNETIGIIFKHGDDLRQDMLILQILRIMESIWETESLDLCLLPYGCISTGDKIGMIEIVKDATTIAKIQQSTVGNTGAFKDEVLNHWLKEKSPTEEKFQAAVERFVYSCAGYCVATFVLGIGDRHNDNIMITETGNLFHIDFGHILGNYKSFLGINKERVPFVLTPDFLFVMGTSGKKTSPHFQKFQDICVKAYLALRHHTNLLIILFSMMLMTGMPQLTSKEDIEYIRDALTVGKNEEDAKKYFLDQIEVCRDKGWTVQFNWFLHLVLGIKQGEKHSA
# [14] = In vivo inhibition of phosphorylation of S6 at serine 240/244 residues in C57BL/6 mouse brain at 10 to 30 mg/kg, po measured after 1 to 3 hrs by Western blotting analysis; assay type: organism-based; conditions: dose lower 10 mg/kg, time lower 1 hrs, dose upper 30 mg/kg, time upper 3 hrs
# [15] = Drug concentration in C57BL/6 mouse plasma at 10 mg/kg, po measured after 3 hrs; assay type: ADME, organism-based
# [16] = AUC(0 to t) in Beagle dog at 1 mg/kg, po measured upto 24 hrs by LC/MS/MS analysis; assay type: ADME, organism-based, Canis lupus familiaris; design: time < 24 hrs, dose 1 mg/kg, route po; conditions: in vivo
# [17] = Apparent permeability across basolateral to apical side in MDCK-MDR1 cells; assay type: ADME, cell-based, Canis lupus familiaris; conditions: dog
# [18] = Apparent permeability across apical to basolateral side in MDCK-MDR1 cells; assay type: ADME, cell-based, Canis lupus familiaris; conditions: dog
# [19] = Drug concentration in C57BL/6 mouse plasma at 10 mg/kg, po measured after 1 hr; assay type: ADME, organism-based
# [20] = Tmax in C57BL/6 mouse at 1 mg/kg, iv and 3 mg/kg, ip measured upto 24 hrs by HPLC-MS analysis; assay type: ADME, organism-based; conditions: in vivo
# [21] = Plasma protein binding in C57BL/6 mouse plasma at 5 uM measured for 4 hrs by equilibrium dialysis method based LC/MS/MS analysis; assay type: ADME, cell-free; conditions: read-out: PPB (converted)
# [22] = Drug concentration in C57BL/6 mouse brain at 30 mg/kg, po measured after 1 hr; assay type: ADME, organism-based; conditions: read-out: Ct
# [23] = Ratio of drug concentration in brain to plasma in C57BL/6 mouse at 10 mg/kg, po measured at 3 hrs; assay type: ADME, organism-based; conditions: read-out: BPR
# [24] = Drug concentration in C57BL/6 mouse brain at 30 mg/kg, po measured after 8 hrs; assay type: ADME, organism-based; conditions: read-out: Ct
# [25] = Half life in cynomolgus monkey at 1 mg/kg, po and 0.1 mg/kg, iv measured upto 24 hrs by LC/MS/MS analysis; assay type: ADME, organism-based, Macaca fascicularis; conditions: in vivo
# [26] = Drug concentration in C57BL/6 mouse brain at 1 mg/kg, po measured after 3 hrs; assay type: ADME, organism-based; conditions: read-out: Ct
# [27] = Drug concentration in C57BL/6 mouse plasma at 10 mg/kg, po measured after 8 hrs; assay type: ADME, organism-based
# [28] = Drug concentration in C57BL/6 mouse brain at 10 mg/kg, po measured after 24 hrs; assay type: ADME, organism-based; conditions: read-out: Ct
# [29] = Drug concentration in C57BL/6 mouse brain at 1 mg/kg, po measured after 8 hrs; assay type: ADME, organism-based; conditions: read-out: Ct
# [30] = Drug concentration in C57BL/6 mouse brain at 3 mg/kg, po measured after 24 hrs; assay type: ADME, organism-based; conditions: read-out: Ct
# [31] = Ratio of drug concentration in brain to plasma in C57BL/6 mouse at 3 mg/kg, po measured after 24 hrs; assay type: ADME, organism-based; conditions: read-out: BPR
# [32] = Ratio of drug concentration in brain to plasma in C57BL/6 mouse at 3 mg/kg, po measured at 1 hr; assay type: ADME, organism-based; conditions: read-out: BPR
# [33] = Ratio of drug concentration in brain to plasma in C57BL/6 mouse at 1 mg/kg, po measured at 3 hrs; assay type: ADME, organism-based; conditions: read-out: BPR
bioavailability [1],concentration at 3 h [3],AUC(0-t) at 24 h [4],Cmax [5],Cmax [6],pIC50 [8],Kp at 24 h [10],pIC50 [13],concentration at 3 h [15],Papp B→A [17],Papp A→B [18],concentration at 1 h [19],Tmax [20],"fraction unbound at 4 h, 5 µM [21]",concentration at 1 h [22],Kp at 3 h [23],SMILES,Activity [12],further results
98%,4160 nM,8.09 µM·h,5050 nM,1260 nM,< 5.00,0.7,< 5.00,2160 nM,20.1 ×10⁻⁶ cm/s,41.5 ×10⁻⁶ cm/s,2480 nM,0.4 h,0.065,4050 nM,0.51,C[C@@H]1COCCN1c1cc(N2CCOC[C@@H]2C)nc2[nH]c(-c3ccccn3)nc12,Non-Toxic,"AUC(0-t) at 24 h ([2]; C57BL/6, mouse): 2.22 µM·h; Cmax [7]: 34 nM; Tmax [9]: 0.8 h; AUC(0-t) at 24 h [11]: 0.125 µM·h; inhibition (INH) [14]: Active; AUC(0-t) at 24 h [16]: 0.056 µM·h"
112%,8420 nM,2.39 µM·h,1730 nM,1920 nM,< 5.00,0.66,< 5.00,5520 nM,12 ×10⁻⁶ cm/s,14 ×10⁻⁶ cm/s,4420 nM,1.5 h,0.068,13100 nM,0.59,C[C@@H]1COCCN1c1cc(N2CCOC[C@@H]2C)nc2[nH]c(-c3cscn3)nc12,Non-Toxic,"concentration at 8 h [24]: 462 nM; half-life [25]: 5 h; concentration at 3 h [26]: 240 nM; concentration at 8 h [27]: 406 nM; AUCt ([2]; mouse, 24 h): 10.377 µM·h; concentration at 24 h [28]: 130 nM; concentration at 8 h [29]: 90 nM; concentration at 24 h [30]: 5 nM; Kp at 24 h [31]: 0.84; Kp at 1 h [32]: 0.51; Kp at 3 h [33]: 0.36"
